Assay results from patent US10322132B2, “Prevention or treatment of uratic or gouty diseases” (SHANTON PHARMA CO., LTD., priority 2015, dated 2019).

Experiments:
IL-1β, IL-6, KC and TNFα = experiment: Air sacculitis (MSU-induced air sacs), cytokines in lavage fluid; details: 5 mg/kg (dexamethasone intraperitoneal, colchicine intragastric), lavage fluid supernatant, mean, n = 8
Experimental: (§1) The sterile MSU crystals were added to 5 mL of sterilized saline before injected into air sacs.
(§2) Male Wistar rats were raised for one week and then randomly divided into 6 groups. Animals were anesthetized and then injected with 24 mL of sterile air in their backs. The animals received the second injection of air 4 days later. On day 7, the rats in the blank group and model group were intragastrically administered with the solvent at a dose of 10 mL/kg; the rats in the dexamethasone group were administered by intraperitoneal injection with dexamethasone at a dose of 5 mg/kg; the rats in the colchicine group were intragastrically administered with colchicine at a dose of 5 mg/kg. […] One hour after administration, the rats in the blank group were injected with 5 mL of saline into the air sacs at the back, and the rats from other groups were injected with 5 mL of MSU crystal suspension (1 mg/mL) into the air sacs at the back. Four hours later, the lavage fluid in the air sacs was taken, and a portion of the lavage fluid was used for cytological analysis. The remaining was centrifuged at 8000 rpm for 15 min, and the supernatant was stored at −80° C. for the detection of cytokines IL-1β, IL-6, KC and TNFα. The test results were shown as mean±SEM and statistically analyzed by t-test.

MSU-induced air sacs = experiment: Air sacculitis (MSU-induced air sacs), leukocyte counts in lavage fluid; details: for Leukocyte count: Basophil / Leukocyte count: Eosinocyte / Leukocyte count: Lymphocyte / Leukocyte count: Monocyte / Leukocyte count: Neutrophil / Total cell count: 5 mg/kg (dexamethasone intraperitoneal, colchicine intragastric), lavage fluid 4 h after MSU, mean ± SEM, n = 8;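 on all read-outs here: male Wistar rats with dorsal air sacs, dosed 1 h before injecting MSU crystal suspension, compared with saline-injected blank and vehicle-treated model groups, cytological analysis of lavage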
Experimental: as §1, §2

IFNγ = experiment: ConA-induced IFNγ release; format: in vivo, Male C57BL/6 mice
Experimental: The experiment was conducted by reference to Dalya R. Soondl, Elisa Bjørgo, etc. PI3K p110δ regulates T cell cytokine production during primary and secondary immune responses in mice and humans. Blood. Author manuscript; available in PMC 2013 Mar. 11; and Gabriele Sass, Sonja Heinlein, etc. CYTOKINE EXPRESSION IN THREE MOUSE MODELS OF EXPERIMENTAL HEPATITIS. CYTOKINE, Vol. 19, No. 3 (7 Aug.), 2002: pp 115-120.
The C57BL/6 mice were raised in the SPF-grade animal room for 1 week, and were then randomly divided into the corresponding model group and the administration groups according to the body weight. The […] were administered with ConA by the tail vein injection at a dose of 15 mg/kg 30 min after the administration of the solvent or the test samples by subcutaneous injection at a dose of 20 mg/kg. After the mice were anesthetized with sodium pentobarbital (45 mg/kg by intraperitoneal injection) 3 h after administration of ConA, the blood was collected by cardiac puncture. The blood was placed in the centrifuge tube without anticoagulant and left still at room temperature. One hour later, the blood was centrifuged. The serum was extracted and stored at −80° C. The content of IFNγ (γ-interferon) in the serum was detected by a Mouse IFNγ Elisa

[1] = test system: MSU-induced gouty arthritis; experiment: Pain value in rats with gouty arthritis (electronic Von Frey pain threshold detector); format: in vivo, Male Wistar rats
Experimental: The rats with gouty arthritis were placed in a metabolic cage, and the palm center of the left foot of each rat was irritated with an electronic Von Frey pain threshold detector. The maximum stress value was recorded when each rat withdrew its foot, and the value was the pain value of that rat.

TNF-α = experiment: LPS-induced TNF-α release; format: in vivo, Male BALB/C mice
Experimental: The experiment was conducted by reference to Pascale Gaillard, Isabelle Jeanclaude-Etter, etc. Design and Synthesis of the First Generation of Novel Potent, Selective, and in Vivo Active (Benzothiazol-2-yl)acetonitrile
BALB/C mice were raised in the SPF-grade animal room for 1 week, and were then randomly divided into the corresponding model group and the administration groups according to the body weight. The […] were administered with the solvent or the test samples by subcutaneous injection at a dose of 10 mg/kg. The rats were administered with LPS by intraperitoneal injection at a dose of 15 mg/kg 30 min after the administration of the solvent or the test samples. The mice were anesthetized with sodium pentobarbital (45 mg/kg by intraperitoneal injection) 1 h after LPS administration. The blood was collected by cardiac puncture, and the content of TNF-α (tumor necrosis factor) in plasma was measured with a Mouse TNF-α Elisa Ready-set-go kit.

serum uric acid = experiment: Uric acid-lowering experiment in cynomolgus monkeys; format: in vivo; parameters: Reduction rate of serum uric acid: concentration or dose not given beside the values; details: for Reduction rate of serum uric acid / Content of serum uric acid: intravenous; for Reduction rate of serum uric acid: 24 h after administration vs before administration; for Content of serum uric acid: 24 h after administration
Experimental: The experiment was done by reference to Komoriya K, Osada Y, Hasegawa M, Horiuchi H, Kondo S, Couch R C, Griffin T B. Hypouricemic effect of allopurinol and the novel xanthine oxidase inhibitor TEI-6720 in chimpanzees. Eur J Pharmacol. 1993 Dec. 21; 250(3): 455-60.
Each compound was tested in three non-naïve cynomolgus monkeys (1 #, 2 # and 3 #), wherein the monkeys were administered with test samples by intravenous injection. Blood was collected from the vein before administration and 1 h, 3 h, 6 h and 24 h after administration. The blood was left still at room temperature. The serum was collected by centrifugation. The content of uric acid in serum was measured. Reduction rate of serum uric acid=(average uric acid content before administration−average uric acid content after administration)/average uric acid content before administration*100%.

[2] = test system: MSU-induced gouty arthritis; experiment: MSU-induced gouty arthritis, toe volume; format: in vivo, Male Wistar rats; details: for Inhibition of toe volume change (%): vs model group; for effect on increase of the toe volumes in the test rats (in words): compared with the model group
Experimental: The experiment was done by reference to Hsin-Pai Lee, Shi-Ying Huang, Yen-You Lin. Soft Coral-Derived Lemnalol Alleviates Monosodium Urate-Induced Gouty Arthritis in Rats by Inhibiting Leukocyte Infiltration and iNOS, COX-2 and c-Fos Protein Expression. […] 2013, 11, 99-113.
One gram of uric acid was weighed, introduced into 200 mL of boiling water and heated. Then, NaOH (2 mol/L) was added until pH reached 9. The solution became clear, and was cooled at room temperature and then left still overnight. MSU was obtained after filtration, which was dried at 60° C. for 24 h and then sterilized at a high temperature of 180° C.
The toe volumes of the rats were measured one day prior to the experiment. The rats were administered with the solvent by subcutaneous injection in the model group at a dose of 5 mL/kg, while the rats were administered with test samples by subcutaneous injection in administration groups at a dose of 5 mg/kg. Rats were anesthetized immediately after administration and were injected with 0.09 mL of MSU suspension into the joint cavity of the left ankle. The volume of the left toe was measured in rats 9 h after the injection of MSU into the ankle joint cavity.
The toe volumes of the rats were measured one day prior to the experiment. The rats were administered with the solvent by subcutaneous injection in the model group at a dose of 15 mL/kg, while the rats were administered with test samples by subcutaneous injection in administration groups at a dose of 15 mg/kg or 10 mg/kg. Rats were anesthetized immediately after administration and were injected with 0.09 mL of MSU suspension into the joint cavity of the left ankle. The volume of the left toe was measured in rats 9 h after the injection of MSU into the ankle joint cavity.
The toe volumes of rats were measured one day prior to the experiment. The rats were administered with the solvent by subcutaneous injection in the model group at a dose of 15 mL/kg, while the rats were administered with the test sample by subcutaneous injection in administration group at a dose of 15 mg/kg. Rats were anesthetized immediately after administration and were injected with 0.09 mL of MSU suspension into the joint cavity of the left ankle. The volume of the left toe in each rat was measured 9 h after the injection of MSU into the ankle joint cavity.

[3] = Pharmacokinetics experiment in cynomolgus monkeys, intravenous; format: in vivo, cynomolgus monkeys (Macaca fascicularis); details: 3 mg/kg, Mean ± SD, n = 3
Experimental: Three non-naïve cynomolgus monkeys were administered with test compounds A, B and D at a dose of 5 mg/kg by intravenous injection and with test compound C at a dose of 3 mg/kg by intravenous injection, with one compound being tested at a time. Blood was collected from the vein before administration and 1 h, 3 h, 6 h and 24 h after administration, and plasma was isolated. The plasma was analyzed by a 4000 Q Trap LC-MS/MS instrument. The concentrations of the test samples were output by Analyst 1.6.1 from AB Company. The parameters ( ) such as the mean, standard deviation, and coefficient of variation were calculated using Microsoft Excel, wherein the values directly output by Analyst 1.6.1 requires no calculation. PK parameters were calculated using Pharsight Phoenix 6.2 software (NCA model).

[4] = Example 5, 10 mg/kg subcutaneous, 9 h after MSU

In the case of `COc1cc2c(c(OC)c1OC)-c1ccc(OC)c(=O)cc1[C@@H](NC(C)=O)CC2` [Colchicine, colchicine, reference compound], the “IL-1β” value (IL-1β, IL-6, KC and TNFα) is reported as 112.6 pg/mL, the “KC” value (IL-1β, IL-6, KC and TNFα) is reported as 9892.7 pg/mL and the “TNF-α” value (IL-1β, IL-6, KC and TNFα) is reported as 32.2 pg/mL. The “Leukocyte count: Basophil” value (MSU-induced air sacs) was 0 ± 0 *10^4/air sacs, the “Leukocyte count: Eosinocyte” value (MSU-induced air sacs) was 7.8 ± 2.0 *10^4/air sacs and the “Leukocyte count: Lymphocyte” value (MSU-induced air sacs) was 12.1 ± 2.5 *10^4/air sacs. The “Leukocyte count: Monocyte” value (MSU-induced air sacs) was 171.7 ± 20.1 *10^4/air sacs, the “Leukocyte count: Neutrophil” value (MSU-induced air sacs) was 21.3 ± 6.6^$ *10^4/air sacs and the Total cell count (MSU-induced air sacs) was 212.9 ± 28.8^$ *10^4/air sacs. The “effect on increase of the total cell count and neutrophil count in the lavage fluid caused by MSU (in words)” value (MSU-induced air sacs; compound A at the oral doses of 30 mg/kg and 100 mg/kg) was “significantly inhibit”.

For `CCCCn1c(=O)n(C)c(=O)c2[nH]c(Cl)nc21` [Compound C, 8-chloro-1-methyl-3-butyl-3,7-dihydro-1H-purine-2,6-dione], the “inhibition (%)” value (IFNγ; IFN-γ in serum vs model group, 20 mg/kg subcutaneous) was 19.4%, the “effect on content of IFNγ in the serum of the test mice (in words)” value (IFNγ; compared with the model group) was “significantly reduce” and the “Content of IFN-γ” value (IFNγ; serum, 20 mg/kg subcutaneous 30 min before ConA 15 mg/kg tail vein, 3 h after ConA) was 2644 pg/mL. For the same compound, the “Pain value” ([1]; Example 5, 10 mg/kg subcutaneous, left foot, Von Frey) was 43.46 g, the “effect on pain values in the test rats (in words)” value ([1]; Example 5, compared with the model group) was “significantly increase” and the “inhibition (%)” value (TNF-α; TNF-α in plasma vs model group, 10 mg/kg subcutaneous) was 24.4%. For the same compound, the “effect on content of TNF-α in the plasma of the test mice (in words)” value (TNF-α; compared with the model group) was “significantly reduce”, the “Content of TNF-α” value (TNF-α; plasma, 10 mg/kg subcutaneous 30 min before LPS 15 mg/kg i.p., 1 h after LPS) was 1208 pg/mL and the “effect on serum uric acid levels in the test monkeys (in words)” value (serum uric acid; compared to the levels measured before administration) was “significantly reduce”. For the same compound, the “Reduction rate of serum uric acid” value (serum uric acid; animal 1#) was 20.3%, the “Reduction rate of serum uric acid” value (serum uric acid; animal 2#) was 41.0% and the “Reduction rate of serum uric acid” value (serum uric acid; animal 3#) was 13.9%. For the same compound, the “Reduction rate of serum uric acid” value (serum uric acid; mean) was 25.7%, the “Content of serum uric acid” value (serum uric acid; animal 1#) was 45.8 µmol/L and the “Content of serum uric acid” value (serum uric acid; animal 2#) was 38.3 µmol/L. For the same compound, the “Content of serum uric acid” value (serum uric acid; animal 3#) was 50.7 µmol/L, the “Content of serum uric acid” value (serum uric acid; mean) was 44.9 µmol/L and the “Change of toe volume” value ([2]; Example 4, 5 mg/kg subcutaneous, 9 h after MSU injection into left ankle joint cavity) was 0.451 mL. The “Inhibition of toe volume change (%)” value ([2]; Example 4, 5 mg/kg subcutaneous, 9 h after MSU) was 10.5%, the “effect on increase of the toe volumes in the test rats (in words)” value ([2]; Example 4, 5 mg/kg) was “significantly inhibit” and the “Toe volume change” value [2, 4] was 0.261 mL. For the same compound, the “Inhibition of toe volume change (%)” value [2, 4] was 35.4%, the “effect on increase of the toe volumes in the test rats (in words)” value ([2]; Example 5, 15 mg/kg or 10 mg/kg) was “significantly inhibit” and the “t1/2z” value [3] was 41.49 ± 12.31 h.

In the case of `C[C@@H]1C[C@H]2[C@@H]3CCC4=CC(=O)C=C[C@]4(C)[C@@]3(F)[C@@H](O)C[C@]2(C)[C@@]1(O)C(=O)CO` [Dexamethasone, dexamethasone, reference compound], the “IL-1β” value (IL-1β, IL-6, KC and TNFα) is reported as 27.8 pg/mL, the “KC” value (IL-1β, IL-6, KC and TNFα) is reported as 1653.5 pg/mL and the “TNF-α” value (IL-1β, IL-6, KC and TNFα) is reported as 6.6 pg/mL. For the same compound, the “Leukocyte count: Basophil” value (MSU-induced air sacs) was 0 ± 0 *10^4/air sacs, the “Leukocyte count: Eosinocyte” value (MSU-induced air sacs) was 4.8 ± 1.6 *10^4/air sacs and the “Leukocyte count: Lymphocyte” value (MSU-induced air sacs) was 7.5 ± 1.1 *10^4/air sacs. For the same compound, the “Leukocyte count: Monocyte” value (MSU-induced air sacs) was 171.0 ± 19.2 *10^4/air sacs, the “Leukocyte count: Neutrophil” value (MSU-induced air sacs) was 13.8 ± 2.4^$ *10^4/air sacs and the Total cell count (MSU-induced air sacs) was 197.2 ± 22.8^$$ *10^4/air sacs.
